In patent US5977133A, “Pyridone antibiotic with improved safety profile” (priority 1998, dated 1999):
Structures can show the parent of a compound that is named as a salt.

How the values were obtained:
Assay type in all cases: cell-based
S. aureus (CiproS) = test: In vitro MIC, agar dilution; details: Staphylococcus aureus
S. aureus (CiproR) = test: In vitro MIC, agar dilution; details: Staphylococcus aureus
S. epidermidis (CiproS) = test: In vitro MIC, agar dilution; details: Staphylococcus epidermidis
S. epidermidis (CiproR) = test: In vitro MIC, agar dilution; details: Staphylococcus epidermidis
S. pneumoniae (PenS) = test: In vitro MIC, agar dilution; details: Streptococcus pneumoniae
S. pneumoniae (PenR) = test: In vitro MIC, agar dilution; details: Streptococcus pneumoniae
S. pneumoniae (CiproR) = test: In vitro MIC, agar dilution; details: Streptococcus pneumoniae, read-out: MIC Range
S. pyogenes = test: In vitro MIC, agar dilution; details: Streptococcus pyogenes
E. faecium (CiproS) = test: In vitro MIC, agar dilution; details: Enterococcus faecium
E. faecium (CiproR) = test: In vitro MIC, agar dilution; details: Enterococcus faecium, read-out: MIC Range
E. faecium (VanS) = test: In vitro MIC, agar dilution; details: Enterococcus faecium
E. faecalis (VanS) = test: In vitro MIC, agar dilution; details: Enterococcus faecalis
Enterococcus spp. (VanR) = test: In vitro MIC, agar dilution; details: Enterococcus
E. coli = test: In vitro MIC, agar dilution; details: Escherichia coli, 25 isolates
Method: (§1) Each plate was inoculated with 1:100 (or 1:10 for slow-growing strains, primarily Micrococcus and Streptococcus) dilutions of up to 32 different microorganisms, using a Steers replicator block calibrated to deliver approximately 10^4 colony forming units (CFU's). The inoculated plates were incubated at from about 35° C. to about 37 ° C. for approximately 20-24 hours. In addition, a control plate using BHI agar containing no test compound was prepared and incubated at the beginning and at the end of each test. The quinolone antibacterial ciprofloxacin was used as a control ("Cntl").
(§2) The numbers below the microorganism species indicate the nunbers of isolates tested. […] The MIC is defined as the lowest concentration of test compound yielding no growth (a slight haze or sparsely isolated colonies at the inoculum spot) as compared to the growth control containing no test compound.

Salmonella spp. = test: In vitro MIC, agar dilution; details: 23 isolates
Method: as §1, §2

Shigella spp. = test: microbe, parasite or virus in culture; details: read-out: MIC Range
Klebsiella spp. = test: In vitro MIC, agar dilution; details: Klebsiella
C. freundii = test: In vitro MIC, agar dilution; details: Citrobacter freundii
P. mirabilis = test: In vitro MIC, agar dilution; details: Proteus mirabilis
Providencia spp. = test: In vitro MIC, agar dilution; details: Providencia
Enterobacter spp. = test: In vitro MIC, agar dilution; details: Enterobacter
P. aeruginosa (CiproS) = test: In vitro MIC, agar dilution; details: Pseudomonas aeruginosa
P. aeruginosa (CiproR) = test: In vitro MIC, agar dilution; details: Pseudomonas aeruginosa
B. fragilis = test: In vitro MIC, agar dilution; details: Bacteroides fragilis
C. difficile = test: In vitro MIC, agar dilution; details: Clostridioides difficile
C. perfringens = test: microbe, parasite or virus in culture; details: Clostridium perfringens
H. influenzae = test: In vitro MIC, agar dilution; details: Haemophilus influenzae
M. catarrhalis = test: In vitro MIC, agar dilution; details: Moraxella catarrhalis
Legionella spp. = test: microbe, parasite or virus in culture; details: Legionella
M. pneumoniae = test: In vitro MIC, agar dilution; details: Mycoplasmoides pneumoniae, read-out: MIC Range
N. gonorrhoeae = test: In vitro MIC, agar dilution; details: Neisseria gonorrhoeae
H. pylori = test: In vitro MIC, agar dilution; details: Helicobacter pylori
M. avium = test: In vitro MIC, agar dilution; details: Mycobacterium avium

Structure (SMILES): Cc1c(N2C[C@@H]3CCCN[C@@H]3C2)c(F)cn2c(=O)c(C(=O)O)cc(C3CC3)c12 [Example 4, 1-cyclopropyl-8-(S,S-2,8-diaza-8-bicyclo[4.3.0]nonyl)-7-fluoro-4H-9-methyl-4-oxo-quinolizine-3-carboxylic acid hydrochloride]
- MIC50 (S. aureus (CiproS)): 0.002 µg/mL
- MIC90 (S. aureus (CiproS)): 0.002 µg/mL
- MIC (S. aureus (CiproS); read-out: MIC Range): 0.0005 to 0.002 µg/mL
- MIC50 (S. aureus (CiproR)): 0.06 µg/mL
- MIC90 (S. aureus (CiproR)): 0.25 µg/mL
- MIC (S. aureus (CiproR); read-out: MIC Range): 0.008 to 0.5 µg/mL
- MIC50 (S. epidermidis (CiproS)): 0.03 µg/mL
- MIC90 (S. epidermidis (CiproS)): 0.03 µg/mL
- MIC (S. epidermidis (CiproS); read-out: MIC Range): 0.015 to 0.03 µg/mL
- MIC50 (S. epidermidis (CiproR)): 0.25 µg/mL
- MIC90 (S. epidermidis (CiproR)): 0.5 µg/mL
- MIC (S. epidermidis (CiproR); read-out: MIC Range): 0.12 to 4 µg/mL
- MIC50 (S. pneumoniae (PenS)): 0.06 µg/mL
- MIC90 (S. pneumoniae (PenS)): 0.12 µg/mL
- MIC (S. pneumoniae (PenS); read-out: MIC Range): 0.06 to 0.12 µg/mL
- MIC50 (S. pneumoniae (PenR)): 0.03 µg/mL
- MIC90 (S. pneumoniae (PenR)): 0.03 µg/mL
- MIC (S. pneumoniae (PenR); read-out: MIC Range): 0.008 to 0.03 µg/mL
- MIC (S. pneumoniae (CiproR)): 0.12 to 0.25 µg/mL
- MIC50 (S. pyogenes): 0.06 µg/mL
- MIC90 (S. pyogenes): 0.06 µg/mL
- MIC (S. pyogenes; read-out: MIC Range): 0.03 to 0.06 µg/mL
- MIC50 (E. faecium (CiproS)): 0.5 µg/mL
- MIC90 (E. faecium (CiproS)): 1 µg/mL
- MIC (E. faecium (CiproS); read-out: MIC Range): 0.25 to 1 µg/mL
- MIC (E. faecium (CiproR)): 0.5 to 4 µg/mL
- MIC50 (E. faecium (VanS)): 0.5 µg/mL
- MIC90 (E. faecium (VanS)): 1 µg/mL
- MIC (E. faecium (VanS); read-out: MIC Range): 0.12 to 1 µg/mL
- MIC50 (E. faecalis (VanS)): 0.12 µg/mL
- MIC90 (E. faecalis (VanS)): 0.25 µg/mL
- MIC (E. faecalis (VanS); read-out: MIC Range): 0.12 to 0.25 µg/mL
- MIC50 (Enterococcus spp. (VanR)): 1 µg/mL
- MIC90 (Enterococcus spp. (VanR)): 1 µg/mL
- MIC (Enterococcus spp. (VanR); read-out: MIC Range): 0.06 to 4 µg/mL
- MIC (E. coli): ≤ 0.008 µg/mL
- MIC50 (E. coli; read-out: MIC50): ≤ 0.008 µg/mL
- MIC90 (E. coli; read-out: MIC90): ≤ 0.008 µg/mL
- MIC (Salmonella spp.): 0.004 to 0.12 µg/mL
- MIC50 (Salmonella spp.; read-out: MIC50): 0.03 µg/mL
- MIC90 (Salmonella spp.; read-out: MIC90): 0.06 µg/mL
- MIC (Shigella spp.): 0.004 to 0.015 µg/mL
- MIC50 (Klebsiella spp.): 0.06 µg/mL
- MIC90 (Klebsiella spp.): 0.06 µg/mL
- MIC (Klebsiella spp.; read-out: MIC Range): 0.008 to 0.25 µg/mL
- MIC50 (C. freundii): 0.03 µg/mL
- MIC90 (C. freundii): 0.25 µg/mL
- MIC (C. freundii; read-out: MIC Range): 0.015 to 0.25 µg/mL
- MIC50 (P. mirabilis): 0.06 µg/mL
- MIC90 (P. mirabilis): 0.12 µg/mL
- MIC (P. mirabilis; read-out: MIC Range): 0.03 to 0.12 µg/mL
- MIC50 (Providencia spp.): 0.03 µg/mL
- MIC90 (Providencia spp.): 0.12 µg/mL
- MIC (Providencia spp.; read-out: MIC Range): 0.008 to 0.25 µg/mL
- MIC50 (Enterobacter spp.): 0.03 µg/mL
- MIC90 (Enterobacter spp.): 0.12 µg/mL
- MIC (Enterobacter spp.; read-out: MIC Range): 0.015 to 0.12 µg/mL
- MIC50 (P. aeruginosa (CiproS)): 0.12 µg/mL
- MIC90 (P. aeruginosa (CiproS)): 1 µg/mL
- MIC (P. aeruginosa (CiproS); read-out: MIC Range): 0.03 to 2 µg/mL
- MIC50 (P. aeruginosa (CiproR)): 8 µg/mL
- MIC90 (P. aeruginosa (CiproR)): 16 µg/mL
- MIC (P. aeruginosa (CiproR); read-out: MIC Range): 4 to 64 µg/mL
- MIC50 (B. fragilis): 0.25 µg/mL
- MIC90 (B. fragilis): 0.25 µg/mL
- MIC (B. fragilis; read-out: MIC Range): 0.12 to 0.5 µg/mL
- MIC50 (C. difficile): 0.25 µg/mL
- MIC90 (C. difficile): 0.25 µg/mL
- MIC (C. difficile; read-out: MIC Range): 0.03 to 0.25 µg/mL
- MIC50 (C. perfringens): 0.5 µg/mL
- MIC90 (C. perfringens): 1 µg/mL
- MIC (C. perfringens; read-out: MIC Range): 0.25 to 1 µg/mL
- MIC50 (H. influenzae): 0.015 µg/mL
- MIC90 (H. influenzae): 0.015 µg/mL
- MIC (H. influenzae; read-out: MIC Range): 0.004 to 0.015 µg/mL
- MIC50 (M. catarrhalis): 0.015 µg/mL
- MIC90 (M. catarrhalis): 0.03 µg/mL
- MIC (M. catarrhalis; read-out: MIC Range): 0.015 to 0.03 µg/mL
- MIC50 (Legionella spp.): 0.25 µg/mL
- MIC90 (Legionella spp.): 0.25 µg/mL
- MIC (Legionella spp.; read-out: MIC Range): 0.25 to 0.5 µg/mL
- MIC (M. pneumoniae): 0.015 to 0.03 µg/mL
- MIC50 (N. gonorrhoeae): 0.002 µg/mL
- MIC90 (N. gonorrhoeae): 0.015 µg/mL
- MIC (N. gonorrhoeae; read-out: MIC Range): 0.002 to 0.015 µg/mL
- MIC50 (H. pylori): 0.12 µg/mL
- MIC90 (H. pylori): 0.25 µg/mL
- MIC (H. pylori; read-out: MIC Range): 0.06 to 0.25 µg/mL
- MIC50 (M. avium): 0.25 µg/mL
- MIC90 (M. avium): 1 µg/mL
- MIC (M. avium; read-out: MIC Range): 0.25 to 4 µg/mL
